Experiments:
Format in all cases: functional, organism-based, Sprague-Dawley
[1] = target: T1, Solute carrier organic anion transporter family member 1A1 (Rattus norvegicus, UniProt P46720); test: (§1) TP_TRANSPORTER: Western in vivo SD rat, liver
T1 sequence (P46720 whole entry): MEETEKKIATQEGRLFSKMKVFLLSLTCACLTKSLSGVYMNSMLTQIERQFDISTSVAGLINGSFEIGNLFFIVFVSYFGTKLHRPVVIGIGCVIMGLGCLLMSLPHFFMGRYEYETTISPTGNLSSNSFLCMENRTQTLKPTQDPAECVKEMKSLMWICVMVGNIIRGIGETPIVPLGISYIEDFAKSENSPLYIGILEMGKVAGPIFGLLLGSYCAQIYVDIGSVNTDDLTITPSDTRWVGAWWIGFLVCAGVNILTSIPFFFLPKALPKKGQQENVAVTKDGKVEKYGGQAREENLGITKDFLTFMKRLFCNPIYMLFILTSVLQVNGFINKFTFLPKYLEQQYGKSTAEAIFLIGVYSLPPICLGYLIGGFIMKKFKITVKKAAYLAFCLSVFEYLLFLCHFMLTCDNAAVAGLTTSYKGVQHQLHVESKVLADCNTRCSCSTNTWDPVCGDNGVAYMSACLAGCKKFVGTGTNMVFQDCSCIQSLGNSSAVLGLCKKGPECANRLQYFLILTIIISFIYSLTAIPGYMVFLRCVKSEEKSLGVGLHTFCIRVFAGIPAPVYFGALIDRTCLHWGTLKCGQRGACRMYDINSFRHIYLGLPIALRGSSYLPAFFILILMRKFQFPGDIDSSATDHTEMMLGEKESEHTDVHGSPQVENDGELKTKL

[2] = target: T2, Solute carrier organic anion transporter family member 1A4 (Rattus norvegicus, UniProt O35913); test: as §1
T2 sequence (O35913 whole entry): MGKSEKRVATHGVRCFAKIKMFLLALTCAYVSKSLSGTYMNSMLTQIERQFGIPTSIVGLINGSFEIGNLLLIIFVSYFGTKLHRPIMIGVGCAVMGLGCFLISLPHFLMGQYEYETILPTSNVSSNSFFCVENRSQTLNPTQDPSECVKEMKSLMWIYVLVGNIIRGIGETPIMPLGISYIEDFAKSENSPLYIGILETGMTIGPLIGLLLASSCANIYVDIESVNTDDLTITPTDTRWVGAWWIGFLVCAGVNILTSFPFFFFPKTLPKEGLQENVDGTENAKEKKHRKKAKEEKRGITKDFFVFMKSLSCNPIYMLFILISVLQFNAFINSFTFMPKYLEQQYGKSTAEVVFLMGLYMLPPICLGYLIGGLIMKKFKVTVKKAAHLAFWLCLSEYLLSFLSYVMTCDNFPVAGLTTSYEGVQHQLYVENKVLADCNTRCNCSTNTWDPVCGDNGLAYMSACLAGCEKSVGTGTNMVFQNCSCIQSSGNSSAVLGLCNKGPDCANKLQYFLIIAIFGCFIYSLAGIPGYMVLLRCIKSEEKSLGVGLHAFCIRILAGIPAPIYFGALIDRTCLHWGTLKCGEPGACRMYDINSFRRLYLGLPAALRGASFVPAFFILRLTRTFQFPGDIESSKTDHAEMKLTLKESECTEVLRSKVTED

[3] = target: T1, Solute carrier organic anion transporter family member 1A1; test: (§2) TP_TRANSPORTER: Northern blot in vivo SD rat, liver
[4] = target: T2, Solute carrier organic anion transporter family member 1A4; test: as §2

CCC1(c2ccccc2)C(=O)NC(=O)NC1=O [PHENOBARBITAL]
Activity [1]: is not an inducer [-]
Activity [2]: inducer [+]
Activity [3]: is not an inducer [-]
Activity [4]: inducer [+]

— ChEMBL document CHEMBL2074133, “Effect of phenobarbital on the expression of bile salt and organic anion transporters of rat liver” (J Hepatol, 2001)
